# Numbered stars: 1 amine (or outer) side, 2 acyl side, 3 side chain; on linkers, the order of the positions; unused ones are H or OH. Square brackets hold non-standard residues; d marks the D form. Side chains are listed from the residue outwards. Peptide text beside a SMILES is read from it. * marks the point of attachment. C20 diacid = O=C(O)CCCCCCCCCCCCCCCCCCC(=O)*; Phe(4-CH2NH2) = NCc1ccc(C[C@H](N)C(=O)O)cc1; C18 diacid = O=C(O)CCCCCCCCCCCCCCCCC(=O)*; αMeW = C[C@](N)(Cc1c[nH]c2ccccc12)C(=O)O; γGlu = O=C(O)[C@H](CCC(=O)[*:2])N[*:1]; Met(O2) = CS(=O)(=O)CC[C@H](N)C(=O)O; PEG5 = NCCOCCOCCOCCOCCOCCC(=O)O; αMeD = C[C@](N)(CC(=O)O)C(=O)O; AEEA = NCCOCCOCC(=O)O; Aib = CC(C)(N)C(=O)O
# Target: T1, human GCGR (Homo sapiens, UniProt P47871)
# T1 construct: expressed in transfected cells; growth medium holds Blasticidin and Hygromycin
# T1 sequence (P47871 26-477): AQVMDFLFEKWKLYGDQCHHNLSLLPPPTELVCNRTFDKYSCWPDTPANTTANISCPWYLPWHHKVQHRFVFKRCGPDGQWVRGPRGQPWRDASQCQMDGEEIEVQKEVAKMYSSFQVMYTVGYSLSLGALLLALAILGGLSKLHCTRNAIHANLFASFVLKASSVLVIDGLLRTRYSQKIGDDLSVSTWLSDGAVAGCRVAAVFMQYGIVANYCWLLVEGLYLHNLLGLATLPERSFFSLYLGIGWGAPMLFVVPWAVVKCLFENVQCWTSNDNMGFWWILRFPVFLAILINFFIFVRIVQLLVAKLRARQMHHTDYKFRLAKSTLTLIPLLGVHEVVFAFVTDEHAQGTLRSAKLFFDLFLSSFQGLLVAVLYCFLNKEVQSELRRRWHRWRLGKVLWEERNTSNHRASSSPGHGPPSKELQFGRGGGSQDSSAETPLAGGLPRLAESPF
# Test: cAMP activity assay at the Glucagon receptor (GCGR)
# Assay type: cell-based
# Conditions: ratio of GCGR EC50 to GLP1R EC50
# Procedure: Activity of the peptides at the Glucagon receptor (GCGR) and GLP-1 receptor (GLP1R) was measured in a cAMP activity assay.
# GCG/GLP-1 receptor co-agonist peptides were dissolved in 100% DMSO (dimethyl sulfoxide) and serially diluted to generate 10 point titrations. The peptide solutions were then transferred into 384-well assay plates (150 nL/well). Assay ready frozen cells expressing human GLP1R or human GCGR were suspended in growth media consisting of DMEM medium (GIBCO®), 10% FBS (GIBCO®), 1×NEAA(GIBCO®), 1×P/S (GIBCO®), 10 ug/mL Blasticidin (GIBCO®) and 200 μg/mL Hygromycin (GIBCO®). […] The cell suspensions (15 μL) were then added to the assay plates containing the peptide solutions (30,000 cells/well for human GCGR; 10,000 cells/well for human GLP1R). The cells were incubated for 1 hour at room temperature in the dark. Production of cAMP was determined using HitHunter™ cAMPXS kits (DiscoverX) following manufacturer protocol. The plates were incubated for overnight at room temperature in the dark. Luminescence was measured using an EnVision Multilabel plate reader (Perkin Elmer). Native GLP-1 and Glucagon (Bachem) are used as control peptides. EC50 values were calculated using uses a 4 parameter logistic fit based on the Levenberg-Marquardt algorithm.
row,hGCGR/hGLP1R (hTone),Compound
1,0.9,CC(C)C[C@H](NC(=O)[C@H](Cc1ccc(O)cc1)NC(=O)[C@H](CCCCN)NC(=O)[C@H](CO)NC(=O)[C@H](Cc1ccc(O)cc1)NC(=O)[C@H](CC(=O)O)NC(=O)[C@H](CO)NC(=O)[C@@H](NC(=O)[C@H](Cc1ccccc1)NC(=O)[C@@H](NC(=O)CNC(=O)[C@H](CCC(N)=O)NC(=O)C(C)(C)NC(=O)[C@@H](N)Cc1c[nH]cn1)[C@@H](C)O)[C@@H](C)O)C(=O)N[C@@H](CC(=O)O)C(=O)N[C@@H](C)C(=O)N[C@@H](CCCNC(=N)N)C(=O)N[C@@H](C)C(=O)N[C@@H](C)C(=O)N[C@@H](CCCCNC(=O)COCCOCCNC(=O)COCCOCCNC(=O)CC[C@H](NC(=O)CCCCCCCCCCCCCCCCC(=O)O)C(=O)O)C(=O)N[C@@H](CC(=O)O)C(=O)N[C@@H](Cc1ccccc1)C(=O)N[C@H](C(=O)N[C@@H](CCC(N)=O)C(=O)N[C@@](C)(Cc1c[nH]c2ccccc12)C(=O)N[C@@H](CC(C)C)C(=O)N[C@@H](CCS(C)(=O)=O)C(=O)N[C@@](C)(CC(=O)O)C(=O)N[C@H](C(N)=O)[C@@H](C)O)C(C)C [TP632] (H-H[Aib]QGTFTSDYSKYLDARAAK([AEEA-AEEA-γGlu-C18 diacid])DFVQ[αMeW]L[Met(O2)][αMeD]T-NH2)
2,0.64,"HsQGTFTSDNle(1,2,3-triazole-4-γE-C16)SKYLDARAAQDFVQWLLDT-NH2 (HXQGTFTSDXSKYLDARAAQDFVQWLLDT; D-Ser, Nle-triazole-γE-C16 lipid; C-terminal amide; peptide TP830; (2)..(2) Xaa is D-Serine; (10)..(10) Xaa is Nle(1,2,3-triazole-4-gammaGlu-C16); (29)..(29) Xaa is C-terminal amide)"
3,2.0,CC(C)C[C@H](NC(=O)[C@H](Cc1ccc(O)cc1)NC(=O)[C@H](CCCCN)NC(=O)[C@H](CO)NC(=O)[C@H](Cc1ccc(O)cc1)NC(=O)[C@H](CC(=O)O)NC(=O)[C@H](CO)NC(=O)[C@@H](NC(=O)[C@H](Cc1ccccc1)NC(=O)[C@@H](NC(=O)CNC(=O)[C@H](CCC(N)=O)NC(=O)C(C)(C)NC(=O)[C@@H](N)Cc1c[nH]cn1)[C@@H](C)O)[C@@H](C)O)C(=O)N[C@@H](CC(=O)O)C(=O)N[C@@H](C)C(=O)N[C@@H](CCCNC(=N)N)C(=O)N[C@@H](C)C(=O)N[C@@H](C)C(=O)N[C@@H](CCC(N)=O)C(=O)N[C@@H](Cc1ccc(CNC(=O)COCCOCCNC(=O)COCCOCCNC(=O)CC[C@H](NC(=O)CCCCCCCCCCCCCCCCCCC(=O)O)C(=O)O)cc1)C(=O)N[C@@H](Cc1ccccc1)C(=O)N[C@H](C(=O)N[C@@H](CCC(N)=O)C(=O)N[C@@H](Cc1c[nH]c2ccccc12)C(=O)N[C@@H](CC(C)C)C(=O)N[C@@H](CC(C)C)C(=O)N[C@@H](CC(=O)O)C(=O)N[C@H](C(N)=O)[C@@H](C)O)C(C)C [TP585] (H-H[Aib]QGTFTSDYSKYLDARAAQ[Phe(4-CH2NH2)]([AEEA-AEEA-γGlu-C20 diacid])FVQWLLDT-NH2; N-terminus assumed)
4,0.8,CC(C)C[C@H](NC(=O)[C@H](CC(C)C)NC(=O)[C@H](CCCCN)NC(=O)[C@H](CO)NC(=O)[C@H](Cc1ccc(O)cc1)NC(=O)[C@H](CC(=O)O)NC(=O)[C@H](CO)NC(=O)[C@@H](NC(=O)[C@H](Cc1ccccc1)NC(=O)[C@@H](NC(=O)CNC(=O)[C@H](CCC(N)=O)NC(=O)C(C)(C)NC(=O)[C@@H](N)Cc1c[nH]cn1)[C@@H](C)O)[C@@H](C)O)C(=O)N[C@@H](CC(=O)O)C(=O)N[C@@H](C)C(=O)N[C@@H](CCCNC(=N)N)C(=O)N[C@@H](C)C(=O)N[C@@H](C)C(=O)N[C@@H](CCCCNC(=O)COCCOCCNC(=O)COCCOCCNC(=O)CC[C@H](NC(=O)CCCCCCCCCCCCCCCCC(=O)O)C(=O)O)C(=O)N[C@@H](CC(=O)O)C(=O)N[C@@H](Cc1ccccc1)C(=O)N[C@H](C(=O)N[C@@H](CCC(N)=O)C(=O)N[C@@H](Cc1c[nH]c2ccccc12)C(=O)N[C@@H](CC(C)C)C(=O)N[C@@H](CCS(C)(=O)=O)C(=O)N[C@@](C)(CC(=O)O)C(=O)N[C@H](C(N)=O)[C@@H](C)O)C(C)C [TP640] (H-H[Aib]QGTFTSDYSKLLDARAAK([AEEA-AEEA-γGlu-C18 diacid])DFVQWL[Met(O2)][αMeD]T-NH2)
5,0.9,CC(C)C[C@H](NC(=O)[C@H](Cc1ccc(O)cc1)NC(=O)[C@H](CCCCN)NC(=O)[C@H](CO)NC(=O)[C@H](Cc1ccc(O)cc1)NC(=O)[C@H](CC(=O)O)NC(=O)[C@H](CO)NC(=O)[C@@H](NC(=O)[C@H](Cc1ccccc1)NC(=O)[C@@H](NC(=O)CNC(=O)[C@H](CCC(N)=O)NC(=O)C(C)(C)NC(=O)[C@@H](N)Cc1c[nH]cn1)[C@@H](C)O)[C@@H](C)O)C(=O)N[C@@H](CC(=O)O)C(=O)N[C@@H](C)C(=O)N[C@@H](CCCNC(=N)N)C(=O)N[C@@H](C)C(=O)N[C@@H](C)C(=O)N[C@@H](CCC(N)=O)C(=O)N[C@@H](CCCCNC(=O)CCOCCOCCOCCOCCOCCNC(=O)CC[C@H](NC(=O)CCCCCCCCCCCCCCCCC(=O)O)C(=O)O)C(=O)N[C@@H](Cc1ccccc1)C(=O)N[C@H](C(=O)N[C@@H](CCC(N)=O)C(=O)N[C@@H](Cc1c[nH]c2ccccc12)C(=O)N[C@@H](CC(C)C)C(=O)N[C@@H](CCS(C)(=O)=O)C(=O)N[C@@](C)(CC(=O)O)C(=O)N[C@H](C(N)=O)[C@@H](C)O)C(C)C [TP608] (H-H[Aib]QGTFTSDYSKYLDARAAQK([PEG5-γGlu-C18 diacid])FVQWL[Met(O2)][αMeD]T-NH2)

# Source: patent US11566057B2, “Long-acting co-agonists of the glucagon and GLP-1 receptors” (Merck Sharp & Dohme Corp., priority 2017, dated 2023)
